Results published in patent US6632813B1, “6-subtituted-7-heteroquinoxalinecarboxylic acid derivatives and addition salts thereof and processes for the preparation of both” (Kyorin Pharmaceutical Co., Ltd., priority 1999, dated 2003).

Assays:
AMPA receptor = test: Binding experiment against AMPA receptor ([3H]-AMPA binding, crude synaptic membranes from cerebral cortex); conditions: [3H]-AMPA 5 nmol/L, potassium thiocyanate 100 mmol/L, 30 minutes at 0° C., rat cerebral cortex crude synaptic membranes; IC50 converted to Ki; read-out: [3H]-AMPA (Ki: μmol/L)
Procedure: Binding Experiment Against AMPA Receptor
To a crude synaptic membranes preparation prepared from cerebral cortex in rat were added [^3H]-AMPA (final concentration: 5 nmol/L) that binds selectively to AMPA receptors, potassium thiocyanate (final concentration: 100 mmol/L) and testing compound, and the mixture was incubated for 30 minutes at 0° C. After the reaction was stopped by suction filtration, the radioactivity on filter was measured with liquid scintillation counter. The specific binding level of [^3H]-AMPA was determined by subtracting the non-specific binding level in the presence of glutamic acid (0.1 mmol/L) from total binding level. The [^3H]-AMPA binding in the absence of testing compound was put on 100, and the concentration of compound to decrease by 50% (IC50 value) was determined, which was converted to Ki value to calculate the binding capacity of each compound to AMPA receptor (Eur. J. Pharmacol., 1993, 246, 195-204).

Compound	Ki (AMPA receptor) [µmol/L]	melting point
COc1cc2[nH]c(=O)c(C(=O)O)nc2cc1-n1ccc(CNC(=O)Nc2ccc(C(=O)O)cc2)c1 [Example 11, 7-(3-(((4-Carboxyphenyl)aminocarbonylamino)methyl)pyrrole-1-yl)-3,4-dihydro-6-methoxy-3-oxoquinoxaline-2-carboxylic Acid]	0.323	> 300 °C
O=C(NCc1ccn(-c2cc3nc(C(=O)O)c(=O)[nH]c3cc2F)c1)Nc1ccc(C(=O)O)cc1 [Example 13]	0.924	> 300 °C
COc1ccc(NC(=O)NCc2ccn(-c3cc4nc(C(=O)O)c(=O)[nH]c4cc3Cl)c2)cc1 [Example 38, 6-Chloro-3,4-dihydro-7-(3-(((4-methoxyphenyl)aminocarbonylamino)methyl)pyrrole-1-yl)-3-oxoquinoxaline-2-carboxylic Acid]	–	208 to 210 °C (dec.)
O=C(Nc1ccccc1)OCc1cn(-c2cc3nc(C(=O)O)c(=O)[nH]c3cc2Cl)cn1 [Example 47, 6-Chloro-3,4-dihydro-3-oxo-7-(4-((phenylcarbamoyloxy)methyl)imidazole-1-yl)quinoxaline-2-carboxylic Acid]	–	199 to 201 °C (dec.)
O=C(NCc1ccn(-c2cc3nc(C(=O)O)c(=O)[nH]c3cc2Cl)c1)Nc1cccc2ccccc12 [Example 40, 6-Chloro-3,4-dihydro-7-(3-(((1-naphthyl)aminocarbonylamino)methyl)pyrrole-1-yl)-3-oxoquinoxaline-2-carboxylic Acid]	–	196 to 198 °C
O=C(NCc1ccn(-c2cc3nc(C(=O)O)c(=O)[nH]c3cc2Cl)c1)Nc1ccccc1 [Example 26]	–	171 to 173 °C (dec.)
O=C(NCc1ccn(-c2cc3nc(C(=O)O)c(=O)[nH]c3cc2Cl)c1)Nc1ccc(C(=O)O)cc1 [Example 10, 7-(3-(((4-Carboxyphenyl)aminocarbonylamino)methyl)pyrrole-1-yl)-6-chloro-3,4-dihydro-3-oxoquinoxaline-2-carboxylic Acid]	0.067	> 300 °C

Now from value to compound:

Ki (AMPA receptor) [µmol/L]	melting point	Compound
–	246 to 248 °C (dec.)	O=C(Nc1ccc(C(=O)O)cc1)OCc1cn(-c2cc3nc(C(=O)O)c(=O)[nH]c3cc2Cl)cn1 [Example 53, 7-(4-(((4-Carboxyphenyl)carbamoyloxy)methyl)imidazole-1-yl)-6-chloro-3,4-dihydro-3-oxoquinoxaline-2-carboxylic Acid]
–	193 to 195 °C (dec.)	O=C(NCc1ccn(-c2cc3nc(C(=O)O)c(=O)[nH]c3cc2Cl)c1)Nc1ccc(Cl)cc1 [Example 39, 6-Chloro-7-(3-(((4-chlorophenyl)aminocarbonylamino)methyl)pyrrole-1-yl)-3,4-dihydro-3-oxoquinoxaline-2-carboxylic Acid]
–	158 to 160 °C (dec.)	CC(C)NC(=O)NCc1ccn(-c2cc3nc(C(=O)O)c(=O)[nH]c3cc2Cl)c1 [Example 37]
0.178	> 300 °C	Cc1cc2[nH]c(=O)c(C(=O)O)nc2cc1-n1ccc(CNC(=O)Nc2ccc(C(=O)O)cc2)c1 [Example 12, 7-(3-(((4-Carboxyphenyl)aminocarbonylamino)methyl)pyrrole-1-yl)-3,4-dihydro-6-methyl-3-oxoquinoxaline-2-carboxylic Acid]
